Our source for the Ki, ΔTm and IC50 values is ChEMBL document CHEMBL1145498, “A systematic interaction map of validated kinase inhibitors with Ser/Thr kinases” (Proc Natl Acad Sci U S A, 2007).

Experiment [1] is described as follows: Binding affinity at PKA.
Experiment [2] concerns the target Casein kinase I isoform gamma-1 (Homo sapiens) (UniProt Q9HCP0).
Experiment [3] addresses Serine/threonine-protein kinase VRK2 (Homo sapiens) (UniProt Q86Y07).
Experiment [4] addresses Mitogen-activated protein kinase 6 (Homo sapiens) (UniProt Q16659).
In experiment [5] the target is Serine/threonine-protein kinase pim-2 (Homo sapiens, UniProt Q9P1W9).
Chain of Serine/threonine-protein kinase pim-2 (Q9P1W9 whole entry, looked up): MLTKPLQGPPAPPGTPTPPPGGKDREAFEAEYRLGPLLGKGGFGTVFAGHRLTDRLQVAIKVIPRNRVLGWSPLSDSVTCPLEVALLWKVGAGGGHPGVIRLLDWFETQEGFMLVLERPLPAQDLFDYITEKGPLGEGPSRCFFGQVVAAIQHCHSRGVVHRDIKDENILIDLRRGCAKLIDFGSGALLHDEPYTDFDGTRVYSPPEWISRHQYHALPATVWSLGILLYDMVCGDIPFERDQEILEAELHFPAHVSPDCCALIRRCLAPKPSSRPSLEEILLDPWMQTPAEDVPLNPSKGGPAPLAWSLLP
Experiment [6] deals with Death-associated protein kinase 3 (Homo sapiens) (UniProt O43293).
For experiment [7], the target named is Cyclin-dependent kinase 16 (Homo sapiens) (UniProt Q00536).
Experiment [8] addresses Mitogen-activated protein kinase 11 (Homo sapiens, UniProt Q15759).
Experiment [9] deals with Myosin light chain kinase, smooth muscle (Homo sapiens, UniProt Q15746). In words: Binding affinity at MLCK.
Experiment [10] has as its target Dual specificity protein kinase CLK3 (Homo sapiens) (UniProt P49761).
Experiment [11] deals with Serine/threonine-protein kinase PLK1 (Homo sapiens) (UniProt P53350).
Chain of Serine/threonine-protein kinase PLK1 (Homo sapiens) (P53350 whole entry): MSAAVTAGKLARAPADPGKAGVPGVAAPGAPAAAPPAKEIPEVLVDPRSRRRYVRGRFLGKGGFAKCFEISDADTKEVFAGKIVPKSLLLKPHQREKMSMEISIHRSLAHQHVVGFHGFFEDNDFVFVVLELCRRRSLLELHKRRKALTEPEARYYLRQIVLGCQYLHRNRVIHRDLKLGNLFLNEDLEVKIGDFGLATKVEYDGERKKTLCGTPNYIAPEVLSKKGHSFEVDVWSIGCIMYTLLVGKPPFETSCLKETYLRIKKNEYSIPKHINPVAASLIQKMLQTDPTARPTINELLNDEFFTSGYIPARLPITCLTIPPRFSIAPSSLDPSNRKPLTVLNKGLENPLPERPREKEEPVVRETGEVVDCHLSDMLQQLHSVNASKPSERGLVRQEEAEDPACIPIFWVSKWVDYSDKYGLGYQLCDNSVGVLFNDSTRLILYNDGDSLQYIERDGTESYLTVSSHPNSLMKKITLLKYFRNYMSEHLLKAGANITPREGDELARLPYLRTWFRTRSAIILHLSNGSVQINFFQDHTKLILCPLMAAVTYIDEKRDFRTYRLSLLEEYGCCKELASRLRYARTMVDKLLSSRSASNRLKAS
For experiment [12], the target named is STE20-like serine/threonine-protein kinase (Homo sapiens) (UniProt Q9H2G2).
Experiment [13] is described as follows: Binding affinity at PKC.
Experiment [14] addresses Serine/threonine-protein kinase 38 (Homo sapiens) (UniProt Q15208).
Experiment [15] deals with Tyrosine-protein kinase JAK1 (Homo sapiens) (UniProt P23458).
Chain of Tyrosine-protein kinase JAK1 (Homo sapiens) (P23458 whole entry): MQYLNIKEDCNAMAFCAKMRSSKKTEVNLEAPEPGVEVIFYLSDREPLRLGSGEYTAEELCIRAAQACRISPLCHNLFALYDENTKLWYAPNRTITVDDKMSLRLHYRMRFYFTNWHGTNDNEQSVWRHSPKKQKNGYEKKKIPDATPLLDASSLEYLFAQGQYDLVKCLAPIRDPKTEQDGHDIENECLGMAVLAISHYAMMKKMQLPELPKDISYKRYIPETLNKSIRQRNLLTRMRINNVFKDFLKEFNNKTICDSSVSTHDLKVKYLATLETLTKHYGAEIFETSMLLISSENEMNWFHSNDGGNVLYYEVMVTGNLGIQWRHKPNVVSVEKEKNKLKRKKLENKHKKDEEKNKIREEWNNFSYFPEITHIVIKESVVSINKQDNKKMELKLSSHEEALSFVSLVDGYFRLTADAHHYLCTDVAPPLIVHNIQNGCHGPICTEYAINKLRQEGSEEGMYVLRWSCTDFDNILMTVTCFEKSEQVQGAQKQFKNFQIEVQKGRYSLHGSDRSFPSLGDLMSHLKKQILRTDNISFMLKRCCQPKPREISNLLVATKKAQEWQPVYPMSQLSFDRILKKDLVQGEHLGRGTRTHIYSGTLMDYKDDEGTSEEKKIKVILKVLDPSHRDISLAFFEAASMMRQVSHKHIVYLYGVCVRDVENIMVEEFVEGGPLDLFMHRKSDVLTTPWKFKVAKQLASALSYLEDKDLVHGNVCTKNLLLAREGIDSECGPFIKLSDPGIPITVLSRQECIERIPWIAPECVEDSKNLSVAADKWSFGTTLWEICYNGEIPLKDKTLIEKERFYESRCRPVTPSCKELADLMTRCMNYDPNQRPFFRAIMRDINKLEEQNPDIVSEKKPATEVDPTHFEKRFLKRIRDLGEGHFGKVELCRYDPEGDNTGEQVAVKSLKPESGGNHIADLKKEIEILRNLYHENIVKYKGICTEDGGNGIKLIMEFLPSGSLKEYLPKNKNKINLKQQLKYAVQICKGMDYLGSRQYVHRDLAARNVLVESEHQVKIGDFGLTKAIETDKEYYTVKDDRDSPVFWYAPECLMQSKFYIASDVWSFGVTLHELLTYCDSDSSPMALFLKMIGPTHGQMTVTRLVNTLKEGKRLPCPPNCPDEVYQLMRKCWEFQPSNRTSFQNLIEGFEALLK
The target of experiment [16] is Cyclin-dependent kinase-like 1 (Homo sapiens) (UniProt Q00532).
The target in experiment [17] is Serine/threonine-protein kinase PAK 6 (Homo sapiens) (UniProt Q9NQU5).
Experiment [18] addresses cAMP-dependent protein kinase catalytic subunit alpha (Homo sapiens) (UniProt P17612).
Experiment [19] concerns the target Serine/threonine-protein kinase pim-3 (Homo sapiens) (UniProt Q86V86).
The target in experiment [20] is Serine/threonine-protein kinase pim-1 (Homo sapiens) (UniProt P11309).
The target of experiment [21] is Mitogen-activated protein kinase 3 (Homo sapiens, UniProt P27361).
Experiment [22] can be described thus: Binding affinity at ROCK.
Experiment [23] addresses Calcium/calmodulin-dependent protein kinase type II subunit alpha (Homo sapiens) (UniProt Q9UQM7).
The target of experiment [24] is T1, Calcium/calmodulin-dependent protein kinase type IV (Homo sapiens) (UniProt Q16566).
T1 sequence (whole entry): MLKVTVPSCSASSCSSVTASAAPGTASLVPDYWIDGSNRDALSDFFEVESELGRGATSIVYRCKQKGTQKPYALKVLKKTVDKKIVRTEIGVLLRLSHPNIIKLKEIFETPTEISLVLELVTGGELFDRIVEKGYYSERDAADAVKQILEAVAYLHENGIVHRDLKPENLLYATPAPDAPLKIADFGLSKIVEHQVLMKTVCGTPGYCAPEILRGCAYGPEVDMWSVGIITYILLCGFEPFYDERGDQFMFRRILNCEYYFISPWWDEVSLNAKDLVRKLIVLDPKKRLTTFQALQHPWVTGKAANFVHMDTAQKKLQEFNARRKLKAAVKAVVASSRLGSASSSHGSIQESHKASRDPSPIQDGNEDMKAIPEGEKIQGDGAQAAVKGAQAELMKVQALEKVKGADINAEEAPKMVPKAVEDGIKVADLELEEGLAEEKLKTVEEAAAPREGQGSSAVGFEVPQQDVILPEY

The target in experiment [25] is Calcium/calmodulin-dependent protein kinase type II subunit gamma (Homo sapiens) (UniProt Q13555).
Chain of Calcium/calmodulin-dependent protein kinase type II subunit gamma (Homo sapiens) (Q13555 whole entry): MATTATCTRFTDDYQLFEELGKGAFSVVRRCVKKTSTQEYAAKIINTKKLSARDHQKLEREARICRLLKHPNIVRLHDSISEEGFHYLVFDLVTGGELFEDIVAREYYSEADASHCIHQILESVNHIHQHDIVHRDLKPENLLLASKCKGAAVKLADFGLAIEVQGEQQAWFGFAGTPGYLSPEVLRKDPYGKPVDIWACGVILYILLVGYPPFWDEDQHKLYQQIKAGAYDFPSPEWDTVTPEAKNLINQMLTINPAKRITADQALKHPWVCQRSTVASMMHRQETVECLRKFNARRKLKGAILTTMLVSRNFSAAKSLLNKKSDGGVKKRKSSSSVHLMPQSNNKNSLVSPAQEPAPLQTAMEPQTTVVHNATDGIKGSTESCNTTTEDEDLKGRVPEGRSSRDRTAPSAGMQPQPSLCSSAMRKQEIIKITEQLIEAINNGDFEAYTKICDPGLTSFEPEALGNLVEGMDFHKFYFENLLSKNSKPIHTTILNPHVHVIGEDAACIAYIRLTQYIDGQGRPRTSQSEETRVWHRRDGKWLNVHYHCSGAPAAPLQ
The subject of another experiment is NT2. In words: Inhibition of lysophosphatidic acid-induced MARCKS phosphorylation in human NT2 cells. It is filed as functional, cell-based.
Experiment [26] addresses Cyclin-dependent kinase 2 (Homo sapiens, UniProt P24941).

Chain of Serine/threonine-protein kinase VRK2 (Homo sapiens) (Q86Y07 whole entry): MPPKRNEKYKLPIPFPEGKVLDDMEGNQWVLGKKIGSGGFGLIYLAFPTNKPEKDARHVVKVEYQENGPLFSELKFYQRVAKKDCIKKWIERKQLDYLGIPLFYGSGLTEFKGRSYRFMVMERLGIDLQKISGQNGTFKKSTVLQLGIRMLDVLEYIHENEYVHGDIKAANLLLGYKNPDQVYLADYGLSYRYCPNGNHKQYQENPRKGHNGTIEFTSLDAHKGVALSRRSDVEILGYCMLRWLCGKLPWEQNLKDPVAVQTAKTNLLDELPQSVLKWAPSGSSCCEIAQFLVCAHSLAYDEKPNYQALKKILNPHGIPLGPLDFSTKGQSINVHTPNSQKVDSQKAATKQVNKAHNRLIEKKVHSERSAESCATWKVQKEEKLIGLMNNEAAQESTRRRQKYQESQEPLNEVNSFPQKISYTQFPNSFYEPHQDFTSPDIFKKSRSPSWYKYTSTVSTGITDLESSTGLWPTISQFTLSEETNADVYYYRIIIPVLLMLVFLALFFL
Chain of Casein kinase I isoform gamma-1 (Homo sapiens) (Q9HCP0 whole entry, looked up, canonical isoform): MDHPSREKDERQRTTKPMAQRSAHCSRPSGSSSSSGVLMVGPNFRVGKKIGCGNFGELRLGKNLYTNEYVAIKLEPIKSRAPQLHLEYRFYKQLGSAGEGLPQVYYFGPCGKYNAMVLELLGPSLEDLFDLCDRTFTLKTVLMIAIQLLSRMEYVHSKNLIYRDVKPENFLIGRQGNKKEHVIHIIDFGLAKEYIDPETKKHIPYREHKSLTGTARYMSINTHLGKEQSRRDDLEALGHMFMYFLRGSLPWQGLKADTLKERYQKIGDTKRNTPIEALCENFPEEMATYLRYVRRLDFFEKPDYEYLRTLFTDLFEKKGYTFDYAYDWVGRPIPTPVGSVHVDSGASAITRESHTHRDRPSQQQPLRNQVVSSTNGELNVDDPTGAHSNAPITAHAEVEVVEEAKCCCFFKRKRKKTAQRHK
Chain of Mitogen-activated protein kinase 6 (Homo sapiens) (Q16659 whole entry): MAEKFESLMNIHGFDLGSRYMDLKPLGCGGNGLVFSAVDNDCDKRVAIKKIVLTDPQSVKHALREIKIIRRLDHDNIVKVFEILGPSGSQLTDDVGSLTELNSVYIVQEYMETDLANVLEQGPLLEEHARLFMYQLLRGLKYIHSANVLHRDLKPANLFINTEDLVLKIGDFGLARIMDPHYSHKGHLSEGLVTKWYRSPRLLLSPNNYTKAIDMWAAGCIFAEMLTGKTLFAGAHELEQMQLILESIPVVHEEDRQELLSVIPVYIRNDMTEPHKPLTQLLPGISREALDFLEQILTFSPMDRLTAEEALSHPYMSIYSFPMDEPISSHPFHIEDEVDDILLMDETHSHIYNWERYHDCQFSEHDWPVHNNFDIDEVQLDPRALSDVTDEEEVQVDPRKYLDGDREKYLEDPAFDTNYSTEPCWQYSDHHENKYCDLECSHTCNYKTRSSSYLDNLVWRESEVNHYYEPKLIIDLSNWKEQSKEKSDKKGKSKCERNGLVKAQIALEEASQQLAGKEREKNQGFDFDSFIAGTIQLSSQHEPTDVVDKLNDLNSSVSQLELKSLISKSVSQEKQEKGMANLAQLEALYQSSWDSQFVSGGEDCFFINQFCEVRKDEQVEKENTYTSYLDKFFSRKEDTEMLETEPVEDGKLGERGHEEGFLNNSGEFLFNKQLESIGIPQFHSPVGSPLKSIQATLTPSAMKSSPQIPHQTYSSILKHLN
Chain of Dual specificity protein kinase CLK3 (Homo sapiens) (P49761 whole entry, looked up): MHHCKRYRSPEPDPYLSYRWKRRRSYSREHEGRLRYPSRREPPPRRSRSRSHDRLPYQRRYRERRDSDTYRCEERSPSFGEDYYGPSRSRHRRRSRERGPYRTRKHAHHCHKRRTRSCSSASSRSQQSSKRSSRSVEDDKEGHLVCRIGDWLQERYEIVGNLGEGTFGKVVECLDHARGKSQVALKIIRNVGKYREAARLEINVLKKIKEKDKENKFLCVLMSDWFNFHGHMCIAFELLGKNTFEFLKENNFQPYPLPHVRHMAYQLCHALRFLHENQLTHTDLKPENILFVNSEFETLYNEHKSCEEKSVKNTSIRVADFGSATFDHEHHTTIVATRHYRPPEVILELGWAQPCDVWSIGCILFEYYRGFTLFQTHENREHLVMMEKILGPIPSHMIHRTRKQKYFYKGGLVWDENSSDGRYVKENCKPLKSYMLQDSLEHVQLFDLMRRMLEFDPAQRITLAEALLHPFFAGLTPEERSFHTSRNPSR

In the case of `Cc1cncc2cccc(S(=O)(=O)N3CCCNC[C@@H]3C)c12`, the Ki (commonly a measure of affinity in units of concentration, obtained from inhibition or displacement) in experiment [1] was 630 nM; in experiment [9], 10100 nM; in experiment [13] it was 9270 nM; in experiment [22], 1.6 nM. Moreover, the ΔTm (commonly the change in melting temperature against a reference sample) is 0 °C in [2]; 1.2 °C in experiment [3]; 0 °C in experiment [4]; 0.7 °C in [5]; 4.8 °C in experiment [6]; -0.6 °C in experiment [7]. The thermal shift (ΔTm) in [8] was -0.1 °C; in experiment [10], 2.6 °C; in [11], 0.7 °C; in experiment [12] it was 2.9 °C; in [14], 0.6 °C; in experiment [15], -0.1 °C. Further, the shift in melting temperature (ΔTm) in experiment [16] turned out to be 0.1 °C; in [17], 0.7 °C; in experiment [18], 3.5 °C; in [19], 0.8 °C; in experiment [20] it was 0.7 °C; in experiment [21], 0.2 °C. Further, the results for the ΔTm in experiment [23], in experiment [24] and in [25] were 1.2 °C, 0.3 °C and 2.9 °C, respectively. Moreover, half-maximal inhibition in the experiment on NT2 (IC50) was put at 2500 nM.
Take `CC(C)n1cnc2c(NCc3ccccc3O)nc(NCCCO)nc21`: the ΔTm in experiment [2] is 0.5 °C; in experiment [3], 0.6 °C; in [4], 0 °C; in [5], 0.1 °C; in [6], 0.2 °C; in experiment [7], -0.2 °C. Besides, the ΔTm in experiment [8] came to 0.1 °C; in [10], 0.1 °C; in experiment [11] it was 0.5 °C; in [12], 0 °C; in [14], 0.3 °C; in [15], 0.8 °C. Besides, the ΔTm was 0.1 °C in experiment [16]; 0.3 °C in experiment [17]; 0.2 °C in experiment [18]; 0.4 °C in experiment [19]; -1.3 °C in experiment [20]; 0.4 °C in experiment [21]. The ΔTm in [23] was 0 °C; in [24], 0.1 °C; in experiment [25], 0.1 °C. Besides, half-maximal inhibition in experiment [26] (IC50) required 80 nM.
